From patent US12503471B2, “Triazatricycle compounds for the treatment of autoimmune disease” (Hoffmann-La Roche Inc., priority 2019, dated 2025) come the findings set out here.

The target in this data set is T1, hERG channel (Homo sapiens, UniProt Q12809).
T1 construct: expressed in transfected cells; host or cells: CHO (Chinese hamster ovary)
In words: hERG channel inhibition assay. Particulars: whole-cell patch-clamp; for IC50: CHO cells expressing hERG; for IC20: human, CHO cells stably expressing hERG. It is filed as cell-based. As to the method: hERG Channel Inhibition Assay
The hERG K^+ channels were cloned in humans and stably expressed in a CHO (Chinese hamster ovary) cell line. CHOhERG cells were used for patch-clamp (voltage-clamp, whole-cell) experiments. Cells were stimulated by a voltage pattern to activate hERG channels and conduct IKhERG Currents (rapid delayed outward rectifier potassium current of the hERG channel). After the cells were stabilized for a few minutes, the amplitude and kinetics of IKhERG were recorded at a stimulation frequency of 0.1 Hz (6 bpm). Thereafter, the test compound was added to the preparation at increasing concentrations. For each concentration, an attempt was made to reach a steady-state effect, usually, this was achieved within 3-10 min at which time the next highest concentration was applied. The amplitude and kinetics of IKhERG are recorded in each concentration of the drug which were compared to the control values (taken as 100%). (references: Redfern W S, Carlsson L, Davis A S, Lynch W G, MacKenzie I, Palethorpe S, Siegl P K, Strang I, Sullivan A T, Wallis R, Camm A J, Hammond T G. 2003; Relationships between preclinical cardiac electrophysiology, clinical Q T interval prolongation and torsade de pointes for a broad range of drugs: evidence for a provisional safety margin in drug development. Cardiovasc. Res. 58:32-45, Sanguinetti M C, Tristani-Firouzi M. 2006; hERG potassium channels and cardiac arrhythmia. Nature 440:463-469, Webster R, Leishman D, Walker D. 2002; Towards a drug concentration effect relationship for QT prolongation and torsades de pointes. Curr. Opin. Drug Discov. Devel. 5:116-26).
For orientation: Block of hERG is tested as a sign of cardiac risk.

T1 sequence (Q12809 whole entry): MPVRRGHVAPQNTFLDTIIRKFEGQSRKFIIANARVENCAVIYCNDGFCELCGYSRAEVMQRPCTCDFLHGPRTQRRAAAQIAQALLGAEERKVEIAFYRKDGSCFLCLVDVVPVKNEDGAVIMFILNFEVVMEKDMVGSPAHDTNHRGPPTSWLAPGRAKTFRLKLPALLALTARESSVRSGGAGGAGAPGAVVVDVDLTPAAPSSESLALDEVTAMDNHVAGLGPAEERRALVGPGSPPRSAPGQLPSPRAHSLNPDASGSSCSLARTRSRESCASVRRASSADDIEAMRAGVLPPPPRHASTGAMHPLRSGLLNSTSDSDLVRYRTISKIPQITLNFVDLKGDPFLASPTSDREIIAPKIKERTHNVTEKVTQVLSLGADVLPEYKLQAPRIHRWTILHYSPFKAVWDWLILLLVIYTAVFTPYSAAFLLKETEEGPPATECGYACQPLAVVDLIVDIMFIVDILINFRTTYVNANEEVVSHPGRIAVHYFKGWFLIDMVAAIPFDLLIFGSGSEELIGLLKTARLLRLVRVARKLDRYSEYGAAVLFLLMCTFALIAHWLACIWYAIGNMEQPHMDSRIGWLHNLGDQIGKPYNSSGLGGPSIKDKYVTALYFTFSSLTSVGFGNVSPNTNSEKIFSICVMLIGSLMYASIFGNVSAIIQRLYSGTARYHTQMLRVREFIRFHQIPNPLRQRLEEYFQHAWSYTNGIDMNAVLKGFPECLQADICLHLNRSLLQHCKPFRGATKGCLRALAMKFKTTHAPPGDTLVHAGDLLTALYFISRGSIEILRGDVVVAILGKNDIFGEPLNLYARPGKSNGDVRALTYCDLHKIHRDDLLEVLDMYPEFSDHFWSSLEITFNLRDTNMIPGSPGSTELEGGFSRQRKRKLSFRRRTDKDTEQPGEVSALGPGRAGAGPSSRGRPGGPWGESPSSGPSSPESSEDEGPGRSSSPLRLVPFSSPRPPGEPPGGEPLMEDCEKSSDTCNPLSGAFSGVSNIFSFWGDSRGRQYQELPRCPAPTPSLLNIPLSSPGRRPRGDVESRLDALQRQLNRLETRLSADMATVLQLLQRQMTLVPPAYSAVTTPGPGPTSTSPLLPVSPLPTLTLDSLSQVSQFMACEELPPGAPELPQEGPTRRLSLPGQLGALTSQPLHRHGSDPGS

For the molecule `[2H]c1ccc2c(N3C[C@@H](C)N4Cc5nc(N6CC[C@@](C)(N)C6)ccc5[C@H]4C3)ccc(C#N)c2n1` [Example 7, 5-[(2S,6R)-11-[(3R)-3-amino-3-methyl-pyrrolidin-1-yl]-6-methyl-4,7,10-triazatricyclo[7.4.0.02,7]trideca-1(9),10,12-trien-4-yl]-2-deuterio-quinoline-8-carbonitrile], the IC50 (as a rule, the concentration at which inhibition is half-maximal) was over 20 µM and the IC20 – broadly, the concentration needed for an effect of 20% – is over 10 µM.
In turn, `C[C@@H]1CN(c2ccc(C#N)c3ncccc23)C[C@@H]2c3ccc(N4CCCNCC4)nc3CN12` [Example 20, 5-[(2S,6R)-11-(1,4-diazepan-1-yl)-6-methyl-4,7,10-triazatricyclo[7.4.0.02,7]trideca-1(9),10,12-trien-4-yl]quinoline-8-carbonitrile] returned an IC50 of over 20 µM and an IC20 of over 10 µM.
Taken in the same sequence, the figures for `[2H]c1ccc2c(N3C[C@@H](C)N4Cc5nc(N6CC[C@](C)(N)C6)ccc5[C@H]4C3)ccc(C#N)c2n1` [Example 8, 5-[(2S,6R)-11-[(3S)-3-amino-3-methyl-pyrrolidin-1-yl]-6-methyl-4,7,10-triazatricyclo[7.4.0.02,7]trideca-1(9),10,12-trien-4-yl]-2-deuterio-quinoline-8-carbonitrile] were over 20 µM and 5.5 µM.
With `[2H]c1ccc2c(N3C[C@@H](C)N4Cc5nc(N6C[C@H]7C[C@@H]6CN7)ccc5[C@H]4C3)ccc(C#N)c2n1` [Example 17, 2-Deuterio-5-[(2S,6R)-11-[(1R,4R)-2,5-diazabicyclo[2.2.1]heptan-2-yl]-6-methyl-4,7,10-triazatricyclo[7.4.0.02,7]trideca-1(9),10,12-trien-4-yl]quinoline-8-carbonitrile], the IC50 is over 20 µM and the IC20 was over 10 µM.
The molecule `C[C@@H]1CN(c2ccc(C#N)c3ncccc23)C[C@@H]2c3ccc(N4CC5CNCC(C4)O5)nc3CN12` [Example 6, 5-[(2S,6R)-6-methyl-11-(9-oxa-3,7-diazabicyclo[3.3.1]nonan-3-yl)-4,7,10-triazatricyclo[7.4.0.02,7]trideca-1(9),10,12-trien-4-yl]quinoline-8-carbonitrile] had a concentration for half-maximal inhibition (IC50) of over 20 µM and an IC20 of over 10 µM.
With `[2H]c1ccc2c(N3C[C@@H](C)N4Cc5nc(N6CCC7(CNC7)C6)ccc5[C@H]4C3)ccc(C#N)c2n1` [Example 9, 2-Deuterio-5-[(2S,6R)-11-(2,6-diazaspiro[3.4]octan-6-yl)-6-methyl-4,7,10-triazatricyclo[7.4.0.02,7]trideca-1(9),10,12-trien-4-yl]quinoline-8-carbonitrile], the IC50 is over 20 µM and the IC20 is over 10 µM.
